The results in this text go back to patent US20240199558A1, “2,4,6-TRISUBSTITUTED 1,3,5-TRIAZINES AS MODULATORS OF CX3CR1” (ASTRAZENECA AB, priority 2022, published 2024).

The structures appear in SMILES notation.

Assay [1] deals with T1, CX3CR1 (Homo sapiens (Human), UniProt P49238). Kind of assay: PathHunter β-arrestin recruitment assay. In kind it is cell-based. The conditions noted are these: CHO-K1 CX3CR1 β-Arrestin cells, with CX3CL1. As for the experimental part:
PathHunter β-Arrestin Recruitment Assay
β-Arrestin recruitment was measured using the PathHunter® eXpress enzyme fragment complementation assay (DiscoverX #93-0956E2). 3500 CHO-K1 CX3CR1 β-Arrestin cells/well in Opti-MEM were incubated together with different concentrations of CX3CL1 and antagonistic compound in a Greiner tissue culture treated flat-bottom 384-well plate. After 90 min of incubation at 37° C., the detection reagent supplied in the kit was added and incubation continued for 1 h at room temperature, before reading the luminescence with a Victor2 luminescence plate reader (PerkinElmer). The final DMSO concentration was held constant at 1%.
Background: Recruitment of arrestin is a read-out of receptor activation apart from second messengers.

Assay [2] deals with T1, CX3CR1. Kind of assay: CX3CR1-dependent cell adhesion to recombinant CX3CL1 in human whole blood under flow. In kind it is cell-based. As to conditions: recombinant full-length CX3CL1. As for the experimental part:
(§1) Adhesion of cells to recombinant full-length human CX3CL1 was monitored under physiological flow using a Cellix VenaFlux microfluidics platform with connected fluorescent microscope and camera, and using Vena8 Fluoro+ Biochips (Cellix) pre-coated with anti-His monoclonal antibody (25 μg/mL; R&D Systems) and His-tagged full-length CX3CL1 (15 μg/mL; R&D Systems).
CX3CR1-Dependent Cell Adhesion to Recombinant CX3CL1 in Human Whole Blood Under Flow
Human whole blood from healthy volunteers was collected using heparin as anti-coagulant. […] Compound stocks or DMSO vehicle were added to 0.5 or 1.0 ml aliquots of blood such that the final concentration of DMSO was 0.1%, corresponding to a 1000-fold dilution of compound stock. Blood was pre-incubated with compound at room temperature for 60 minutes with gentle shaking. DiOC6 (Invitrogen, 5 μM) or Hoechst 33342 (Invitrogen, 300 μM) dye was subsequently added to fluorescently label cells and enable their detection during the flow adhesion assay. To monitor adhesion, blood was allowed to flow through the channels of a Vena8 Fluoro+ biochip at 2.25 dynes per cm^2 for 3-6 minutes prior to capturing images for quantification. Fluorescent cells adhering to the channels were counted and the mean and/or total count across five to six images in each channel were used for calculating concentration-response curves.

Assay [3] concerns the target T1, CX3CR1. Briefly: Flow adhesion for human B-lymphocyte cell line RPMI-8226. In kind it is cell-based. As to conditions: RPMI-8226 cells under flow, recombinant full-length CX3CL1. As for the experimental part: as §1
Flow Adhesion for Human B-Lymphocyte Cell Line RPMI-8226
Cells were cultured in RPMI 1640 medium with GlutaMAX and 20% FBS (HyClone, Perbio). Before each experiment, cells were centrifuged at 320 g and resuspended to 5×10^6 cells per ml in RPMI 1640 with 1% FBS. Cells were pre-incubated for 15 minutes at room temperature with CX3CR1 antagonist in an 8-step 3-fold dilution series starting at 3.3 μM. DMSO concentration was kept constant for all antagonist concentrations at 0.1%. Cells were pumped through the channels of the Vena8 Fluoro+ biochip at 0.5 dynes per cm2 for 3 m prior to capturing microscope images for quantification. Cells adhering to channels were counted and the mean values across five images in each channel were used for calculating the concentration-response curves.

For assay [4], the target named is T1, CX3CR1. Kind of assay: hCX3CR1 [3H]-AZD8797 competitive binding assay (filter). As to conditions: CHO-hCX3CR1 membranes, 2 nM [3H]-AZD8797. The essentials:
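CHO-hCX3CR1 membranes (9 μg/well) were incubated 2 h at room temperature with 2 nM [3H]-AZD8797 and varying competitor concentrations. Buffer: 25 mM HEPES pH 7.4, 10 mM MgCl2, 1 mM CaCl2, 0.5% BSA, 1% DMSO. Bound ligand was collected by vacuum filtration, washed in ice-cold buffer with 500 mM NaCl, and counted by scintillation.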

In assay [5] the target is T1, CX3CR1. Kind of assay: hCX3CR1 [125I]-CX3CL1 displacement binding (SPA). The conditions noted are these: CHO-hCX3CR1 membranes, [125I]-CX3CL1, SPA beads. The method, boiled down:
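SPA competition binding on CHO membranes expressing human CX3CR1, with […] [125I]-CX3CL1 and varying competitor concentrations, WGA PVT beads, 50 mM HEPES pH 7.4, 10 mM MgCl2, 1 mM EDTA, 0.1% gelatin, 1% DMSO. Incubated 20 h at room temperature; bound radioactivity counted.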

T1 sequence (P49238 whole entry): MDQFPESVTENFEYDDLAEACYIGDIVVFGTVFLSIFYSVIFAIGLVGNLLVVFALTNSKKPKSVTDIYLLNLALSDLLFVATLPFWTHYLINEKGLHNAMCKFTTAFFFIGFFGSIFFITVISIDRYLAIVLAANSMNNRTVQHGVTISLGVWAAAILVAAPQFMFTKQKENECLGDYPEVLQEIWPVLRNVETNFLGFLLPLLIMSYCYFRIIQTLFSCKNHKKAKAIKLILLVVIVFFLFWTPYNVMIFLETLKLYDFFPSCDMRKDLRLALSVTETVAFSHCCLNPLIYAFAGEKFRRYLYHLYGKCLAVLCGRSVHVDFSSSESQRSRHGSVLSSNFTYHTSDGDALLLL

Broadly, the EC50 is the concentration needed to bring the measured effect to its halfway point. A low value points to an effect from little substance. For orientation: IC50 means the point on the concentration scale where inhibition reaches its midpoint. At CX3CR1 [1], `CC(C)C[C@H](CO)Nc1nc(C[C@@H](C)c2cccc(F)c2F)nc(NS(C)(=O)=O)n1` (single isomer, unassigned) [Example 144, N-(4-((R*)-2-(2,3-Difluorophenyl)propyl)-6-(((R)-1-hydroxy-4-methylpentan-2-yl)amino)-1,3,5-triazin-2-yl)methanesulfonamide] showed an EC50 of 43 nM. The IC50 at CX3CR1 [2] was determined as 150 nM; at CX3CR1 [3], 6 nM; on CX3CR1 [4], 13 nM; on CX3CR1 [5], 104 nM.
